Legend:
[1] = molecular target: T1, Proteasome Macropain subunit MB1 (Homo sapiens, UniProt P28074); experiment: Inhibition of 20S proteasome beta5 subunit (unknown origin) using Suc-LLVY-AMC as flurogenic substrate measured after 1 hr by fluorescence based analysis; conditions: read-out: pIC50 (converted)
T1 sequence (P28074 whole entry): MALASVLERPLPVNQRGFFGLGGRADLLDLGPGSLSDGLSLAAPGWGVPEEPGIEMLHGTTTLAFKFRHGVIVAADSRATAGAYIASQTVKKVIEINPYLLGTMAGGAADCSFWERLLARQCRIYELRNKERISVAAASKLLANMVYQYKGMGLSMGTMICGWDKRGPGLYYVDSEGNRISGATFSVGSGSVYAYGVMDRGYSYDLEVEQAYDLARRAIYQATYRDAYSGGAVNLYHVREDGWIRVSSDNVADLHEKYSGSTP

[2] = Cytotoxicity against HEK293 cells incubated for 24 hrs; assay type: toxicity, cell-based; conditions: human
HEK293 = experiment: Cytotoxicity against HEK293 cells at less than 20 uM incubated for 24 hrs; assay type: toxicity, cell-based; conditions: human, hek293, 24 h
[3] = molecular target: NACHT, LRR and PYD domains-containing protein 3 (Mus musculus) (UniProt Q8R4B8); experiment: Inhibition of NLRP3 inflammasome activation in LPS-primed mouse J774.A1 cells assessed as reduction in IL-1beta secretion at 1 uM relative to control; assay type: cell-based
Chain of NACHT, LRR and PYD domains-containing protein 3 (Mus musculus) (Q8R4B8 whole entry, the tested form may be a part): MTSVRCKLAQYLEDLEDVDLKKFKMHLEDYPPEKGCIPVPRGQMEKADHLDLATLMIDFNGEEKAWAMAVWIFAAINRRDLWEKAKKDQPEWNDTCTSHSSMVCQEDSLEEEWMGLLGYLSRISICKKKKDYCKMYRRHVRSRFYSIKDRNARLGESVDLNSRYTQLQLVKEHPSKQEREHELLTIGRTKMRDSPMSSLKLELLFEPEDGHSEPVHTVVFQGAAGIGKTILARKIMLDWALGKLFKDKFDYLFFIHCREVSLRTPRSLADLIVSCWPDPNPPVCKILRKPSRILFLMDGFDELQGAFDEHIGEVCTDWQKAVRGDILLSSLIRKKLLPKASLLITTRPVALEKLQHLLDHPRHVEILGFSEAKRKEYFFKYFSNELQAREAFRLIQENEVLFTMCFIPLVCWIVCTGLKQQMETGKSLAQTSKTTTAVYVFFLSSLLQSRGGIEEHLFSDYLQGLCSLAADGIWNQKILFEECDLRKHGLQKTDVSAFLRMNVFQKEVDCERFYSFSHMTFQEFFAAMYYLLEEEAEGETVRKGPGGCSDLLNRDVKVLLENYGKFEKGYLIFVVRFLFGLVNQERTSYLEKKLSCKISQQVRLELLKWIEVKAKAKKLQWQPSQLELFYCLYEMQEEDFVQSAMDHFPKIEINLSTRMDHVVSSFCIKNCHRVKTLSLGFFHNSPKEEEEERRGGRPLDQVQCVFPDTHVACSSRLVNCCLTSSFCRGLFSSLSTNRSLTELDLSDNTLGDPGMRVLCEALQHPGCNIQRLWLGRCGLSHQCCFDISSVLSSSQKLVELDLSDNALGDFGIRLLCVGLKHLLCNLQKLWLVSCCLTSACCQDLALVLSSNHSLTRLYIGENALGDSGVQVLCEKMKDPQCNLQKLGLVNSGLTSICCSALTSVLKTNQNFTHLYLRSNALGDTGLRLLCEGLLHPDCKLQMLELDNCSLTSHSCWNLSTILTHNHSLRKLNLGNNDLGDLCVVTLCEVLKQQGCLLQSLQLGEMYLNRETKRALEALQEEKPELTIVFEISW

| SMILES | IC50 [1] [nM] | IC50 at 24 h [2] [nM] | Activity (HEK293) | inhibition [3] [%] |
| --- | --- | --- | --- | --- |
| CC(C)C[C@H](NC(=O)[C@H](Cc1ccccc1)NC(=O)c1cc(Cl)ccc1Cl)C(=O)O | 50.1 | – | – | – |
| CC(C)C[C@H](NC(=O)[C@@H](NC(=O)c1cc(Cl)ccc1Cl)c1ccccc1)B(O)O | 7.08 | – | – | – |
| COc1ccc(Cl)cc1C(=O)N[C@@H](Cc1ccccc1)C(=O)N[C@@H](CC(C)C)B(O)O | 8.32 | – | – | – |
| CC(C)C[C@H](NC(=O)[C@H](Cc1ccccc1)NC(=O)c1ccccn1)B(O)O | 6.76 | < 79.4 | Non-Toxic | – |
| CC(C)C[C@H](NC(=O)c1cc(Cl)ccc1Cl)B(O)O | > 50.1 | – | – | – |
| CC(C)C[C@H](NC(=O)[C@H](CC(C)C)NC(=O)c1cc(Cl)ccc1Cl)B(O)O | 4.07 | – | – | – |
| CC(C)C[C@H](NC(=O)[C@H](Cc1ccccc1)NC(=O)c1cc(F)ccc1F)B(O)O | 6.03 | – | – | – |
| CC(C)C[C@H](NC(=O)[C@H](Cc1ccccc1)NC(=O)c1ccc(Cl)cc1Cl)B(O)O | 3.47 | – | – | – |
| CC(C)C[C@H](NC(=O)CN(C)C(=O)c1cc(Cl)ccc1Cl)B(O)O | > 50.1 | – | – | – |
| O=C(O)C[C@@H]1CC[C@H](NC(=O)Cc2cccs2)B(O)O1 | – | – | – | 7.8 |
| CC(C)C[C@H](NC(=O)[C@H](Cc1ccccc1)NS(=O)(=O)c1cc(Cl)ccc1Cl)B(O)O | 19.5 | – | – | – |
| CC(C)C[C@H](NC(=O)[C@H](Cc1ccccc1)NC(=O)c1nc(Cl)ccc1Cl)B(O)O | 4.27 | < 79.4 | Non-Toxic | – |
| CC(C)C[C@H](NC(=O)[C@H](Cc1ccc2ccccc2c1)NC(=O)c1cc(Cl)ccc1Cl)B(O)O | 12 | – | – | – |
| CC(C)C[C@H](NC(=O)CNC(=O)c1cc(Cl)ccc1Cl)B(O)O | – | – | – | 77 |
| COc1ccc(F)cc1C(=O)N[C@@H](Cc1ccccc1)C(=O)N[C@@H](CC(C)C)B(O)O | 4.47 | – | – | – |
| CC(C)C[C@H](NC(=O)[C@H](Cc1ccccc1)NC(=O)c1cccc(Cl)c1Cl)B(O)O | 1.2 | < 79.4 | Non-Toxic | – |
| CC(C)C[C@H](NC(=O)[C@H](Cc1ccc(O)cc1)NC(=O)c1cc(Cl)ccc1Cl)B(O)O | 1 | < 79.4 | Non-Toxic | – |
| CC(C)C[C@H](NC(=O)[C@H](Cc1ccccc1)NC(=O)c1ccc(F)cc1F)B(O)O | 4.79 | – | – | – |
| CC(C)C[C@H](NC(=O)[C@H](Cc1ccccc1)NC(=O)c1cnccn1)C(=O)O | 50.1 | – | – | – |
| CC[C@@H](C)[C@H](NC(=O)c1cc(Cl)ccc1Cl)C(=O)N[C@@H](CC(C)C)B(O)O | 3.24 | – | – | – |
| Cc1cncc(C(=O)N[C@@H](Cc2ccccc2)C(=O)N[C@@H](CC(C)C)B(O)O)n1 | 32.4 | – | – | – |
| CC(C)C[C@H](NC(=O)[C@H](Cc1ccccc1)NC(=O)c1c(Cl)cccc1Cl)B(O)O | 3.02 | < 79.4 | Non-Toxic | – |
| CC(C)C[C@H](NC(=O)c1ccc(CNC(=O)c2cc(Cl)ccc2Cl)cc1)B(O)O | > 50.1 | – | – | – |
| CC(C)C[C@H](NC(=O)[C@H](Cc1ccccc1)NC(=O)c1cccc(F)c1F)B(O)O | 1.12 | < 79.4 | Non-Toxic | – |
| CC(C)C[C@H](NC(=O)[C@H](Cc1ccccc1)NC(=O)c1cnccn1)B(O)O [BORTEZOMIB] | – | < 79.4 | Non-Toxic | – |
| CC(C)C[C@H](NC(=O)[C@H](Cc1ccccc1)NC(=O)c1cc(Cl)ccc1Cl)B(O)O | 6.31 | – | – | – |
| CC(C)C[C@H](NC(=O)[C@H](Cc1ccccc1)NC(=O)c1cc(Cl)ccc1F)B(O)O | 3.02 | – | – | – |
| CC(C)C[C@H](NC(=O)[C@H](Cc1ccccc1)NC(=O)c1cnc2ccccc2n1)B(O)O | 13.2 | – | – | – |
| CC(C)C[C@H](NC(=O)[C@H](CO)NC(=O)c1cc(Cl)ccc1Cl)B(O)O | 5.13 | – | – | – |
| CC(C)C[C@H](NC(=O)[C@@H](NC(=O)c1cc(Cl)ccc1Cl)C(C)C)B(O)O | 0.708 | – | – | – |
